Experimental data reported in article PMC7559477, “Zinc Binding by Histatin 5 Promotes Fungicidal Membrane Disruption in C. albicans and C. glabrata” (Journal of Fungi, 2020).
Where no end group is shown, it is not given here.

Legend:
[1] = Peptide solubility assay (Zn2+-induced precipitation from NaPB); type: physicochemical; settings: 15 µM peptide in 10 mM NaPB pH 7.4, 30 min at room temperature (20 °C), centrifuged 20000 x g 10 min, supernatant by NanoDrop A205, triplicate, averaged
Description: Aggregation was quantified by measuring peptide precipitation from NaPB. Molar ratios of [0:0], [0:1], [1:2], [1:1], [2:1], [3:1], and [4:1] ZnSO4 to 15 µM peptide were used and samples were incubated for 30 min at room temperature (20 °C) before centrifugation. Samples were spun at 20000× g for 10 min at room temperature and the protein concentrations of the supernatants were subsequently measured using microvolume spectrophotometry (NanoDrop One, Thermofisher Scientific, Waltham, MA, USA) Data were cleaned using robust regression and outlier removal (ROUT) with Q set to 1%. Cleaned data were baseline corrected by subtracting peptide- and metal- free NaPB (0:0). […] Percent aggregation out of total peptide added was calculated. […] Statistical differences between the peptides at each metal salt titration were calculated using two-way ANOVA with Tukey’s multiple comparison test.
Figure 2 The three Hsts are all soluble at a physiological ratio of Zn^2+ to peptide but differ in relative Zn^2+ affinity. […] Peptide solubility was measured via NanoDrop A205 after removal of insoluble aggregates by centrifugation. […] Absorbance of Zincon at 621 nm was measured as an inverse indicator of relative peptide affinity, as Zincon has a blue color when bound to zinc. […]

[2] = Zinc-binding competition assay with Zincon; settings: competition with Zincon 1:1, 20 µM peptide, 10 mM NaPB pH 7.4, ZnSO4 titration, absorbance at 621 nm; triplicate, averaged
Description: Binding competition assays were carried out utilizing the colorimetric copper and Zn^2+ binding dye Zincon. Peptides (20 µM) were mixed with Zincon at a 1:1 ratio and titrated with increasing equivalents of ZnSO4. Absorbance at 621 nm was measured at each addition of metal salt using a Lambda 25 UV/Vis spectrophotometer (Perkin Elmer, Waltham, MA, USA). Data were curve fit using a one site competition equation.
Figure 2 The three Hsts are all soluble at a physiological ratio of Zn^2+ to peptide but differ in relative Zn^2+ affinity. (A) Percent solubility of 15 µM Hst 5 (red), Hst 5ΔMB (blue), and P113 (green) in 10 mM sodium phosphate buffer pH 7.4 with increasing ratio of Zn^2+ incubated at room temperature for 30 min. Peptide solubility was measured via NanoDrop A205 after removal of insoluble aggregates by centrifugation. (B) Binding competition assay with Zincon and peptides at 20 µM in 10 mM sodium phosphate buffer pH 7.4 to establish relative affinity of Hst 5 (red), Hst 5ΔMB (blue), and P113 (green) for Zn^2+ at increasing molar ratios. Absorbance of Zincon at 621 nm was measured as an inverse indicator of relative peptide affinity, as Zincon has a blue color when bound to zinc. Experiments were performed in triplicate and averaged.

[3] = system: Candida albicans (SC5314); experiment: Extracellular ATP quantification (ATP efflux), C. albicans; type: cell-based; settings: 0.88 fmol/cell; for ATP efflux with added Zn2+: 1:2 ZnSO4:peptide, 10 mM NaPB pH 7.4, words = versus peptide alone; for total ATP efflux: peptide alone, 10 mM NaPB pH 7.4, luminescence
Description: (§1) Candida albicans (SC5314) or Candida glabrata (Cg931010) cells were prepared as for peptide uptake assays, with the exception that cells were added to samples at a dosage of 0.88 fmol peptide/cell in a 1:2 ratio of ZnSO4:peptide. After samples were mixed, each was immediately centrifuged for 2 min at 6000× g at room temperature, after which 10 µL supernatant was removed to new tubes and added to 84 µL boiling TE buffer (50 mM Tris pH 7.5, 2 mM EDTA pH 8) (1-min time point). Pelleted cells were resuspended with vortexing. After this, samples were incubated at 30 °C (220 rpm) and removed from incubation for a 10-min time point. Samples in TE buffer were boiled for two more minutes and stored on ice for quantitation. Then, 25µL of each sample were added to 10 µL Staybrite adenosine triphosphate (ATP) assay mix and 65 µL assay buffer (Biovision, Milpitas, CA, USA), and luminescence was immediately measured using a FlexStation 3 plate reader (Molecular Devices, San Jose, CA, USA). Experiments were carried out on at least three separate days. Data were interpolated using a standard curve to determine moles of ATP in each sample. Significant differences between Zn^2+ added and Zn^2+-free samples at each time point were determined using one-way ANOVA and Sidak’s multiple comparisons test.
Figure 5 Zinc induces almost immediate ATP efflux. C. albicans SC5314 bioluminescent ATP efflux assay. Cells were treated at 30 °C with 0.88 fmol/ cell. Hst 5 (red), Hst 5ΔMB (blue), or P113 (green) in 10 mM sodium phosphate buffer pH 7.4 with or without added Zn^2+ at a one to two peptides ratio (hatched). Cells were removed from samples via centrifugation and aliquots of supernatant were taken at 1 min and 10 min time points to measure extracellular ATP by luminescence. Experiments were repeated on at least three separate days and averaged. Significance of differences in ATP efflux calculated using one way ANOVA with Sidak’s multiple comparison test. ** indicates p ≤ 0.01, *** indicates p ≤ 0.001.

[4] = system: Candida glabrata (Cg931010); experiment: Extracellular ATP quantification (ATP efflux), C. glabrata; type: cell-based; settings: 0.88 fmol/cell
Description: as §1, with “test. […]” for “test.”

QQQAKRHHGYKRKFQQQQQSHRGY [Hst 5ΔMB]
precipitation of peptide ([1]; 1:1 Zn2+:peptide): 14% | precipitation of peptide ([1]; 4:1 Zn2+:peptide): 25% | relative affinity for Zn2+ [2]: lowest affinity | ATP efflux with added Zn2+ ([3]; 1 min): did not significantly increase | total ATP efflux ([3]; 1 min, at least three days, averaged): 85 pmol | ATP efflux with added Zn2+ ([3]; 10 min at 30 °C): did not significantly increase | total ATP efflux ([3]; 10 min at 30 °C): 257 pmol | ATP efflux total ([4]; 1 min, peptide alone, 10 mM NaPB pH 7.4, luminescence): ≤ 30 pmol | ATP efflux with added Zn2+ ([4]; 10 min, 1:2 Zn2+:peptide, 10 mM NaPB pH 7.4, words = versus 1 min): over 100 pmol
